Results as given in PMC3504148, “Enteropeptidase: A Gene Associated with a Starvation Human Phenotype and a Novel Target for Obesity Treatment” (PLoS ONE, 2012).

Tests used:
[1] = test system: mouse model of diet-induced obesity (DIO); experiment: Long term effect in mice fed with DIO regimen; type: in vivo, male Swiss mice
Experimental: Figure 3 Effect of OBE-2008 administered before night phase on food consumption (left) and body weight (right) in mice. Red = control; dark green = dose of 10 mg/kg/day; light green = dose of 25 mg/kg/day. Number of mice per group n = 10. Statistical comparison between control and treated group were conducted by Dunnett’s tests. Asterisks (*) indicate p values versus control. A p value of<0.05 was considered to show a statistically significant difference.
The anti-obesity effect of OBE lead in a diet induced obesity model (45% kcal from lipids and 20% from proteins, reference 824053 from Special Diet Services, UK) was evaluated following daily oral administration in mice for 63 days. The study involved 3 groups of 10 male Swiss mice; Group 1: water; Group 2: OBE lead at 10 mg/kg/day; Group 3: OBE lead at 25 mg/kg/day. Animal were weighted daily. Food consumption was measured daily for each animal, except during fasted periods. For all groups, the food was given ad libitum. Body weights are given as means ± SEM (Standard Error of the Mean). The effects of test items on body weight and food consumption were expressed as absolute values and compared with those of the vehicle using multiple comparison procedure with a Dunnett’s test in case of significance (P≤0.05).

[2] = test system: fasted mice given oral fat overload; experiment: Effect on triglycerides absorption in mouse; type: in vivo; conditions: for decrease of fatty acids absorption (plasma triglycerides AUC): up to 6 hours, p<0.05
Experimental: (§1) Figure 4 The mechanism-based efficacy of OBE-2008 on enteropeptidase was evaluated based on triglycerides (left) and amino acids (right) absorption. Red = control; dark green = dose of 5 mg/kg; light green = dose of 50 mg/kg. Number of mice per group n = 3 (right) for amino acids, and n = 8 (left) for triglycerides. Statistical comparison between control and treated group were conducted by two-sided unpaired Student’s tests. Asterisks (*) indicate p values versus control. A p value of<0.05 was considered to show a statistically significant difference.
The aim of the study was to evaluate the duration of effect of OBE lead on triglycerides absorption in mice after oral administration. The study involved 3 groups of 8 male animals each. Group 1: water; Group 2: OBE lead at 5 mg/kg; Group 3: OBE lead at 50 mg/kg. On the day of the test, all animals were given an oral fat overload. The preparation to be administered (OBE lead or its vehicle) was diluted at 1/100 in 10 mL of clinoleic acid 20. In all animals, about 60 µL were sampled via retro orbital sinus at time points: before dosing, 1, 2, 3, 5 and 6 hours post-dosing. The blood samples were prepared within 30 minutes of sampling by centrifugation for 10 minutes at 1500 g. All plasma samples were dosed for triglycerides. The effects of test items on triglycerides absorption were conducted by two-side unpaired Student’s test. A p value of<0.05 was considered to show a statistically significant difference.

[3] = test system: fasted mice given radiolabeled proteins; experiment: Effect on 14C-protein absorption in mouse; type: in vivo, male Swiss mice; conditions: 240 minutes, not statistically significant
Experimental: as §1
The aim of the study was to evaluate the duration of effect of OBE lead on absorption of ^14C-proteins after oral administration in mice. Fifteen male Swiss mice were divided in 3 groups; Group 1: water and ^14C-proteins; Group 2: OBE lead 5 mg/Kg and ^14C-proteins; Group 3: OBE lead 50 mg/Kg and ^14C-proteins. A preparation containing 5 ml of Clinoleic 20 (Baxter Ref DDB9500) with 1 g of glucose (Sigma; ref:G8270) and 1 g of casein (Sigma; ref: C3400) was prepared. […] About 4 ml Pico-fluor 40 was added and after shaking, the total radioactivity contained within the different samples was determined by liquid scintillation using a Packard 1900 CA spectrometer equipped with an external standard system. […]

[4] = Pharmacokinetics in mice, IV and oral; type: in vivo, male Swiss mice
Experimental: Figure 5 Pharmacokinetics of OBE-2008 in mice following intravenous (1 mg/kg, dark blue) and oral (10 mg/kg, light blue) dosing. Number of mice per group n = 3.
This study aimed to determine the fate of OBE lead in mice after intravenous (IV; 1 mg/kg) and oral (PO; 10 mg/kg) administration. Blood was taken from two animals at each sampling time from T = 0 to T = 6 h after IV administration, and from T = 0 to T = 24 h after oral administration. Samples were analyzed for OBE lead using LC/MS/MS methodology. For each IV and PO routes, three male Swiss mice aged 10-weeks were included in the experiment. The animals OBE IV-1, OBE IV-2 and OBE IV-3 were treated at T = 0 with 1 mg/kg of OBE lead using 2 mL/kg. The injection was performed in the jugular vein under isoflurane anaesthesia. The animals OBE PO-1, OBE PO-2 and OBE PO-3 were treated at T = 0 with 10 mg/kg of OBE lead using 5 mL/kg. The solution to be administered was delivered by gavage, using a gastric cannula. About 50–75 µL of blood were sampled from the retro orbital sinus. The blood was immediately centrifuged at 3500 rpm (+4°C) for 5 minutes. Protein precipitation was conducted by adding a volume of 400 µL of acetonitrile to 10 µL of plasma in Teflon vials. After centrifugation, an aliquot of the supernatant (+4°C auto-sampler; injected volume = 10 µL) was immediately analyzed by LC/MS/MS (column: HILIC Silica 5 µM 2.1×150 mm; isocratic elution using an ACN/pH3 buffer (70/30, V/V) eluant containing 1% formic acid; flow rate = 0.25 mL/min. The MS system operated in the ESI mode, and the ionization source was heated at 350°C). Chromatographic peaks areas were than calculated and plotted against time.

CC(=O)N[C@@H](C)C(=O)N[C@@H](Cc1ccccc1)C(=O)N[C@@H](CCCCN)B1O[C@@H]2C[C@@H]3C[C@@H](C3(C)C)[C@]2(C)O1 [OBE-2008]
side effects such as steatorrhea or diarrhea ([1]; long-term oral treatment): no side effects
reduction of weight gain relative to control group ([1]; oral 10 mg/kg daily, up to 9 weeks): 6%
reduction of weight gain relative to control group ([1]; oral 25 mg/kg daily, up to 9 weeks): 10%
effect on food consumption ([1]; oral daily 10 and 25 mg/kg, up to 9 weeks, food ad libitum): no effect
maximum level of triglycerides in plasma after 1 hour vs control ([2]; 5 mg/kg and 50 mg/kg oral): substantially lower than in the control group
decrease of fatty acids absorption (plasma triglycerides AUC) ([2]; 5 mg/kg oral): 33%
decrease of fatty acids absorption (plasma triglycerides AUC) ([2]; 50 mg/kg oral): 32%
decrease of total protein absorption (AUC) ([3]; 5 mg/kg oral): 17%
decrease of total protein absorption (AUC) ([3]; 50 mg/kg oral): 22%
detectability in plasma ([4]; intravenous 1 mg/kg): undetectable after 2 hours
plasma half-life ([4]; intravenous 1 mg/kg): minutes
calculated bioavailability ([4]; oral 10 mg/kg vs intravenous 1 mg/kg): 2–3%
